The values below come from PMC9386018, “A lymphatic-absorbed multi-targeted kinase inhibitor for myelofibrosis therapy” (Nature Communications, 2022).

Several values for one entry are separate records, joined by “and”; a condition that tells them apart may be missing. Equal values may be shown once.

Data set [1] in a line: Compound quantitation in blood and mesenteric lymph nodes. It is filed as in vivo, mouse. The following applies: mice. On the procedure: Whole blood and mesenteric lymph nodes were collected either 30 min or 4 h following compound administration and stored at −20 °C until future processing and analysis by the University of Michigan Pharmacokinetics Core as above, or as outlined below, to determine compound concentrations in each tissue. […] Data was generated from n ≥ 4 individual animals per compound per study group or dose.
Briefly, acetonitrile was added to a final concentration of 60–80% to bone marrow, whole blood, plasma, lymphatic fluid, lymphatic proteo-lipid sub-fractions, or mesenteric lymph node samples for compound extraction. Extraction was performed by shaking and/or bead rupture using a Precellys Evolution tissue homogenizer (Bertin Technologies SAS). […] Optimization of MS and MS/MS parameters for MRM quantitation and maximum sensitivity of individual compounds was performed using SCIEX Analyst software (AB Sciex). […] All LC-MS/MS acquisitions were performed with an independent standard curve for each group of analytes and for each individual run. All solvents utilized were of Optima LC-MS Grade (Fisher Scientific). Data was generated from n ≥ 2 individual animals per compound per study condition or dose.

Data set [2] addresses Target kinase isoforms (PI3K, mTOR, RAF, MEK) (Homo sapiens, UniProt P42338). Briefly: Target kinase isoforms 10-point IC50 determination (Supplementary Fig. 7). It is filed as biochemical. Conditions: PI3K beta. The text has this:
(§1) The average percent kinase inhibition from replicate data was ranked low to high, converted to a compatible identifier format, then input into Coral Human Kinome Visualization software for presentation analysis. […] Scaling of evolutionary distance for PI kinases is only relative and is based on literature analysis[62],[63]. Average percent kinome inhibition values from replicate data are supplied in Source Data file. […] Corrected data was normalized to vehicle treated control values, and dose response percent kinase activity was analyzed by non-linear regression for determination of IC50 values.

Data set [3] deals with Target kinase isoforms (PI3K, mTOR, RAF, MEK) (Homo sapiens, UniProt P42336). Described as above. Format: biochemical. Conditions: PI3K alpha.
Target kinase isoforms (PI3K, mTOR, RAF, MEK) (Homo sapiens, UniProt P42336), sequence (P42336 whole entry, canonical isoform): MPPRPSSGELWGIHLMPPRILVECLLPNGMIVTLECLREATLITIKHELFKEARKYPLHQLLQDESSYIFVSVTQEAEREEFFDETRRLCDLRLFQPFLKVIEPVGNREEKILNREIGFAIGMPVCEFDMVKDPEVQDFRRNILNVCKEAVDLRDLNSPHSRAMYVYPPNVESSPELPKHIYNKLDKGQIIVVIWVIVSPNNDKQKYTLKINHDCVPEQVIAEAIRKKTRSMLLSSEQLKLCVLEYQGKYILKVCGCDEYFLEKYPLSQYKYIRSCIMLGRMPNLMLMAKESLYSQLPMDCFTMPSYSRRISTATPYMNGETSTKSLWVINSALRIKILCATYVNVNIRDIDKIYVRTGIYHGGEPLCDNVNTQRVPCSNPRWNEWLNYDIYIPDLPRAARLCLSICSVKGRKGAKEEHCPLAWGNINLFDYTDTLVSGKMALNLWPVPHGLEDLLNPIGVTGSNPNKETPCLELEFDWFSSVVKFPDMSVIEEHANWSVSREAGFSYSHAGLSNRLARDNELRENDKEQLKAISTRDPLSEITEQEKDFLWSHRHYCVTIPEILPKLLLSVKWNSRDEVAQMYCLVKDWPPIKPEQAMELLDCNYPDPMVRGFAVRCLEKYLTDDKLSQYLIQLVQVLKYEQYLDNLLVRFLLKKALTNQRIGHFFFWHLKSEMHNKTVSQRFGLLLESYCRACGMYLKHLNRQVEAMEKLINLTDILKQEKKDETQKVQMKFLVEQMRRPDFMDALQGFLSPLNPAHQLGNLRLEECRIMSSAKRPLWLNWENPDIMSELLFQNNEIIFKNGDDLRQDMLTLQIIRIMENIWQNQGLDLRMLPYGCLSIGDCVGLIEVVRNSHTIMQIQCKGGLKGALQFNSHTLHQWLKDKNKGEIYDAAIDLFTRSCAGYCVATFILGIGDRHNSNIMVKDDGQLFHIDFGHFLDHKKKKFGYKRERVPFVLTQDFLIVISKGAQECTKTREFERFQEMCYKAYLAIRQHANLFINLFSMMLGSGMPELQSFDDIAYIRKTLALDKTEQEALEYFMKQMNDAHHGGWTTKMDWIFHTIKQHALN
From the text: as §1

The target of data set [4] is T1, Target kinase isoforms (PI3K, mTOR, RAF, MEK) (Homo sapiens, UniProt O00329).
T1 sequence (O00329 1-1044): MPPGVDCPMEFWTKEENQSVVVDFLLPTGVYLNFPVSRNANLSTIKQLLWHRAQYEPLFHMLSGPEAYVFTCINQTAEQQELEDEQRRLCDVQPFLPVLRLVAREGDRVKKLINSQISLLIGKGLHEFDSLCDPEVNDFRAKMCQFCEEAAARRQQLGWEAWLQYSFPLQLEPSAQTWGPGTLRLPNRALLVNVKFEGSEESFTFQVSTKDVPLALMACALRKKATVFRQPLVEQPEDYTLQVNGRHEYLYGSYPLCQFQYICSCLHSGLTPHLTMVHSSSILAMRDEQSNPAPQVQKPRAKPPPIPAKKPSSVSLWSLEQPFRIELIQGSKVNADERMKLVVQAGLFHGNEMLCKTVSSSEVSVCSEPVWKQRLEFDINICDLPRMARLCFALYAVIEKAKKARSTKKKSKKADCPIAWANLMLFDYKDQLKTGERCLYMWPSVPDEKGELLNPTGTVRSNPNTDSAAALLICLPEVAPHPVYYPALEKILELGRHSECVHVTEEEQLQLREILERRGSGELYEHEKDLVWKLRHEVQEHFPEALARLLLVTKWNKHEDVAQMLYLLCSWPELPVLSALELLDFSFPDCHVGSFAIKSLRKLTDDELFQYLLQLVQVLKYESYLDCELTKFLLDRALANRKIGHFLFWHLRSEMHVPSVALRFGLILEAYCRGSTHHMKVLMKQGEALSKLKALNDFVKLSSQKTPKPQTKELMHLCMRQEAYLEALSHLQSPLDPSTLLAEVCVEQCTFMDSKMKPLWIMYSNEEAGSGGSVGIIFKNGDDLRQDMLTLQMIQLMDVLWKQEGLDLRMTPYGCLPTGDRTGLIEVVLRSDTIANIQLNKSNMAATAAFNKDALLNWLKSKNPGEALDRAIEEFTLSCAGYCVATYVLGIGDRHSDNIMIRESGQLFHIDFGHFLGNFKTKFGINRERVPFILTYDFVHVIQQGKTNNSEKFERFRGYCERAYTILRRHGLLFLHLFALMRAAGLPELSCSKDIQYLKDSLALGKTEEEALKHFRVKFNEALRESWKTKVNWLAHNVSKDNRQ
The data set is described as above. It is filed as biochemical. Conditions: PI3K delta.
From the text: as §1

The target in data set [5] is Target kinase isoforms (PI3K, mTOR, RAF, MEK) (Homo sapiens, UniProt P48736). The data set is described as above. It is filed as biochemical. Conditions: PI3K gamma.
Target kinase isoforms (PI3K, mTOR, RAF, MEK) (Homo sapiens, UniProt P48736), sequence (P48736 whole entry, canonical isoform): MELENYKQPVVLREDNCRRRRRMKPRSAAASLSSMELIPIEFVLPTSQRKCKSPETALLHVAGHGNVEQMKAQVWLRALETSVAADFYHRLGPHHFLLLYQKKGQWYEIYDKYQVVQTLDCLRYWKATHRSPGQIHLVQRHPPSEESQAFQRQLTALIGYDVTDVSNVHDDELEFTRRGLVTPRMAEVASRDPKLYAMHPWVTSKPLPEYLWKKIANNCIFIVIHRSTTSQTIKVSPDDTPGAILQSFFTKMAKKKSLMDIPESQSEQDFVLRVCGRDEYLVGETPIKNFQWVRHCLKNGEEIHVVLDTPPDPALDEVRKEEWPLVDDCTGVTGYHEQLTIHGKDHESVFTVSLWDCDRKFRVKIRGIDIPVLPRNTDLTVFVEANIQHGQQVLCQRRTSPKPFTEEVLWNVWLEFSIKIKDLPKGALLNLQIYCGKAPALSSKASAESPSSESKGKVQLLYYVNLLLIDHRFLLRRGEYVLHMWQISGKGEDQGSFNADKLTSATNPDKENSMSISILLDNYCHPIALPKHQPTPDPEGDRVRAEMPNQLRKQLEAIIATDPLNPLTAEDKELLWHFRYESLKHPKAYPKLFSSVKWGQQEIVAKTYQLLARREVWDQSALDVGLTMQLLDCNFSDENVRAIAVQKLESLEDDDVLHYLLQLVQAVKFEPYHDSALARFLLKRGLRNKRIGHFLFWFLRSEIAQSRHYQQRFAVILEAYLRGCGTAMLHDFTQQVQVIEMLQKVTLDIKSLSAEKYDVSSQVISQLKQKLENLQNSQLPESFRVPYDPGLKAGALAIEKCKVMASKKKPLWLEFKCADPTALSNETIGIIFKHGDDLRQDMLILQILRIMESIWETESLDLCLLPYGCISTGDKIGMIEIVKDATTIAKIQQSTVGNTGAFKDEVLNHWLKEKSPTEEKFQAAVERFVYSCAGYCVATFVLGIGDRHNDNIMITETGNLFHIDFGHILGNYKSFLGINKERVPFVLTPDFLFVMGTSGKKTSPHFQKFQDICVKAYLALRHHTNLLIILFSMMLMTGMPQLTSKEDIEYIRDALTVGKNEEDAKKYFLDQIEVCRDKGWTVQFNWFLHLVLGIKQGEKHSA
From the text: as §1

The mark [6] stands for this setting: concentration 0.0187 nM, 18.7 pM.
Where [7] appears, read: concentration 0.495 nM, 0.000495 µM.
[8] abbreviates: concentration 1.52 nM, 0.00152 µM.
Setting [9] is: concentration 4.57 nM, 0.00457 µM.

Target kinase isoforms (PI3K, mTOR, RAF, MEK) (Homo sapiens, UniProt P42338), sequence (P42338 whole entry, canonical isoform): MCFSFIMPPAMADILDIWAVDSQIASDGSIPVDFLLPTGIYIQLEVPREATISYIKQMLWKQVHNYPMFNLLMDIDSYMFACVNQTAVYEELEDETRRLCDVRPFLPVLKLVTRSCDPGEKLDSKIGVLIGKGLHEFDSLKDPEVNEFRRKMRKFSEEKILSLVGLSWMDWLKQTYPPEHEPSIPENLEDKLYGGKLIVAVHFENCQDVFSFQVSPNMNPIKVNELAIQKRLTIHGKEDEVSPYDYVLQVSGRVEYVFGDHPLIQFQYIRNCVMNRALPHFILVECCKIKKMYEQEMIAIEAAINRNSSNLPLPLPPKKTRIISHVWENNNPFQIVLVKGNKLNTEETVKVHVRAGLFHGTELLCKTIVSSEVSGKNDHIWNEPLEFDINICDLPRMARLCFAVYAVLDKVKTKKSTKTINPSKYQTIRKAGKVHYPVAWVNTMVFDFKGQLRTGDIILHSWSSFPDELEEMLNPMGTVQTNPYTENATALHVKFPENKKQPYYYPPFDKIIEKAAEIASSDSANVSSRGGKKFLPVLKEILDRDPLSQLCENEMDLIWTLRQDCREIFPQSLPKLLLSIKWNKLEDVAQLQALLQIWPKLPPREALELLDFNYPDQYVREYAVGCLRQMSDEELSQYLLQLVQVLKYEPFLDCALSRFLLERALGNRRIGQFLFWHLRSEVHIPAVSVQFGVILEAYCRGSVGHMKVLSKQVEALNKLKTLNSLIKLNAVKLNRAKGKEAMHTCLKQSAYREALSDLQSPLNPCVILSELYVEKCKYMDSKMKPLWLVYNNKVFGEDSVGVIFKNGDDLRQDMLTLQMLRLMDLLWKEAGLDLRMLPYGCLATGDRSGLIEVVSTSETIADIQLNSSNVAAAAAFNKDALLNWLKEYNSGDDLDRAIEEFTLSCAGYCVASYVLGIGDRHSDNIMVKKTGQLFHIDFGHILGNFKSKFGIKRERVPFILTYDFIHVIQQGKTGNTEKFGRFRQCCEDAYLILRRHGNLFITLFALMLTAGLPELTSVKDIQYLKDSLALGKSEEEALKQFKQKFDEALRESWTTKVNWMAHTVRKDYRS

Take `O=C(NOCCOCCOCCOCCONC(=O)c1ccc(F)c(F)c1Nc1ccc(I)cc1F)c1ccc(F)c(F)c1Nc1ccc(I)cc1F` [LP5-37]: the “mesenteric lymph node levels versus blood” value in data set [1] (4 h after oral 400 mg kg^−1) is reported as “significantly higher than in blood”.

As for `COCCOCCOCCOCCONC(=O)c1ccc(F)c(F)c1Nc1ccc(I)cc1F` [LP5-38], the “uptake in the mesenteric lymph nodes compared to LP5-37” value in data set [1] (4 h after oral 100 mg kg^−1) is “reduced uptake”.

Take `COc1ncc(-c2ccc3nccc(-c4ccnnc4)c3c2)cc1NS(=O)(=O)c1ccc(F)cc1F` [GSK2126458]: the values for the activity at 18.7 pM in data set [2] (concentration 0.0187 nM) and in data set [4] (concentration 0.0187 nM) were 103% and 97%, respectively. Besides, the “Kinase Activity (%) PI3K beta” value in data set [2] (setting [6]) is 108%; in data set [2] (concentration 0.0562 nM, 56.2 pM), 106%; in data set [2] (setting [7]), 72% and 62% and 60% and 71% and 65% and 84%; in data set [2] (setting [8]), 48% and 51% and 47% and 67% and 62%; in data set [2] (concentration 41.2 nM, 0.0412 µM), 7% and 8% and 10%; in data set [2] (concentration 123 nM, 0.123 µM), 6% and 10% and 8% and 7%. The “Kinase Activity (%) PI3K beta” value in data set [2] (concentration 1110 nM, 1.11 µM) is on record as 8%; in data set [2] (concentration 3330 nM, 3.33 µM), 10%. Further, the results for the activity at 56.2 pM in data set [2] (concentration 0.0562 nM) and in data set [4] (concentration 0.0562 nM) were 110% and 81%, respectively. The activity at 0.0412 µM in data set [2] (concentration 41.2 nM) turned out to be 9%; in data set [3] (concentration 41.2 nM), 0%; in data set [4] (concentration 41.2 nM), 4%; in data set [5] (concentration 41.2 nM) it was 0%. Further, the activity at 0.123 µM in data set [2] (concentration 123 nM) came out at 9%; in data set [3] (concentration 123 nM) it was 0%; in data set [4] (concentration 123 nM), 4%; in data set [5] (concentration 123 nM) it was 0%. In addition, the activity at […] in data set [2] (concentration 370 nM) came to 12%; in data set [3] (concentration 370 nM), 0%; in data set [4] (concentration 370 nM) it was 4%. The activity at 1.11 µM came out at 9% in data set [2] (concentration 1110 nM), 0% in data set [3] (concentration 1110 nM), 4% in data set [4] (concentration 1110 nM) and 0% in data set [5] (concentration 1110 nM). In addition, the activity at 3.33 µM in data set [2] (concentration 3330 nM) was 11%; in data set [4] (concentration 3330 nM), 5%; in data set [5] (concentration 3330 nM) it was 0%. Moreover, the activity at 2.04 pM was determined as 107% in data set [2] (concentration […]) and 103% in data set [4] (concentration […]). For the same molecule, the values for the activity at 670 fM in data set [3] (concentration 0.000670 nM) and in data set [4] (concentration 0.00067 nM) were 105% and 113%, respectively. The “Kinase Activity (%) PI3K alpha” value in data set [3] (concentration 0.00209 nM, 2.09 pM) is 101%; in data set [3] (concentration 0.0188 nM, 18.8 pM) it was 89%; in data set [3] (concentration 0.0564 nM, 56.4 pM), 75%; in data set [3] (setting [7]) it was 17% and 18% and 16% and 20%; in data set [3] (setting [8]), 5% and 6%; in data set [3] (setting [9]), 1%. Also, the “Kinase Activity (%) PI3K alpha” value in data set [3] (concentration 10000 nM, 10 µM) stood at 1%. The activity at 18.8 pM in data set [3] (concentration 0.0188 nM) is 91%. The activity at 56.4 pM in data set [3] (concentration 0.0564 nM) amounted to 73%. Also, in data set [3] (concentration 0.495 nM), the activity at 0.000495 µM was determined as 15%. In addition, the activity at 0.00152 µM was 4% in data set [3] (concentration 1.52 nM) and 19% in data set [5] (concentration 1.52 nM). Further, the “Kinase Activity (%) PI3K delta” value is 102% in data set [4] (concentration 0.00067 nM, 670 fM); 108% in data set [4] (setting [6]); 16% and 14% and 11% and 8% in data set [4] (setting [7]); 6% in data set [4] (setting [9]); 6% in data set [4] (concentration 1110 nM, 1.11 µM); 6% and 7% in data set [4] (concentration 3330 nM, 3.33 µM). The “Kinase Activity (%) PI3K delta” value in data set [4] (concentration 10000 nM, 10 µM) is 7% and 0%; in data set [4] (concentration […], 2.04 pM), 105%; in data set [4] (concentration […], 6.09 pM), 106%. Moreover, the activity at 6.09 pM in data set [4] (concentration […]) turned out to be 104%. The “Kinase Activity (%) PI3K gamma” value in data set [5] (setting [8]) is 24% and 22% and 20% and 21%; in data set [5] (concentration 370 nM, […]) it was 1%; in data set [5] (concentration 10000 nM, 10 µM), 5%; in data set [5] (concentration […], 6.09 pM) it was 103%.
